Here are results for three molecules from patent US20180136241A1, “METHOD FOR EXAMINING FOOD ALLERGY AND EXAMINATION KIT” (The University of Tokyo, priority 2014, published 2018).

The conditions of data set [1]: cited from earlier work.
For data set [2] the following is noted: cited from earlier work. This is another data set of the same source.
The subject of data set [3] is tetranor-PGDM amount excreted in the urine. In words: Urinary tetranor-PGDM by HPLC-MS/MS in OVA-induced food allergy model mouse. The note with it: BALB/c mice sensitized with OVA, drug i.p. every day during OVA oral administration period; cromolyn 300 μg/mouse, DEX 2 mg/kg; n=5. It is filed as in vivo. Here is the method:
(§1) Model preparation: Wild type BALB/c mice (6-8 weeks old, female) were intraperitoneally sensitized with OVA by administering OVA (50 μg) twice at intervals of two weeks. Two weeks later, OVA (10 mg) was orally administered 10 times in total at intervals of two days. As a control, the mice sensitized with OVA was orally administered with physiological saline 10 times in total at intervals of two days.
Medication treatment: During the period of orally administering OVA to the mice sensitized with OVA in accordance with the aforementioned method, dexamethasone (2 mg/kg) or sodium cromoglycate (300 μg/mouse) were intraperitoneally administered every day. […]
Using the urine sample pretreated, tetranor-PGDM and tetranor-PGEM were measured by a high performance liquid chromatography tandem mass spectrometer (HPLC-MS/MS). […] As a quantitative method, MRM (Multiple Reaction Monitoring) method was employed. Tetranor-PGDM (mass number 328) and tetranor-PGEM (mass number 328) were detected by using product ion m/z 309, which was produced by further decomposing the produced precursor ion m/z (mass number÷charge) 327 by collision induced dissociation (CID). Internal standards, tetranor-PGDM-d6 (mass number 334) and tetranor-PGEM-d6 (mass number 334), were detected by using product ion m/z 315, which was produced by further decomposing precursor ion m/z (mass number÷charge) 333 by CID. […]

Data set [4] concerns food allergy symptoms induced by OVA. In words: Frequency of diarrhea in OVA-induced food allergy model mouse. It is filed as in vivo. The note with it: BALB/c mice sensitized with OVA, drug i.p. every day during OVA oral administration period; cromolyn 300 μg/mouse, DEX 2 mg/kg; n=5. The method, then: as §1
Medication treatment: During the period of orally administering OVA to the mice sensitized with OVA in accordance with the aforementioned method, dexamethasone (2 mg/kg) or sodium cromoglycate (300 μg/mouse) were intraperitoneally administered every day.
Symptom evaluation: The number of mice which developed diarrhea within one hour after the OVA administration is determined in percentage.

On to `NCCc1c[nH]cn1` [histamine], for which the “time in which histamine in the blood disappears” value in data set [1] was 15 min.

Regarding `CCCCC[C@H](O)/C=C/[C@H]1C(=O)C[C@H](O)[C@@H]1C/C=C\CCCC(=O)O` [PGD2, prostaglandin D2], the “time in which PGD2 is metabolized in vivo” value in data set [2] was 50 s. As for `O=C(O)c1cc(=O)c2c(OCC(O)COc3cccc4oc(C(=O)O)cc(=O)c34)cccc2o1` [cromolyn, sodium cromoglycate], in data set [3], the “tetranor-PGDM amount excreted in the urine” value is “significantly decreased”. The “food allergy symptoms induced by OVA (frequency of diarrhea)” value in data set [4] is recorded as “suppressed food allergy symptoms”.
